Our source for the EC50 and IC50 values is patent publication US20250195521A1 (Revolution Medicines, Inc., priority 2020, published 2025).

Experiment [1] concerns K-Ras G12C (NCI-H358 cells). Description: Potency assay: pERK in NCI-H358 cells. The note with it: NCI-H358 cells, 4 hours, read-out: pERK EC50 (H358 KRAS G12C). The experiment is classed as cell-based, human. An outline of the steps: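 Cells plated the day before were exposed for 4 h at 37° C, 5% CO2 to a 10-point, 3-fold DMSO dilution series (10 mM top stock), in duplicate. Phospho-ERK was read by AlphaLISA SureFire Ultra or by In-Cell Western with DRAQ5 DNA stain, and IC50 came from a 4-parameter sigmoidal fit.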

Experiment [2] deals with Capan-1 cells (K-Ras G12V). Kind of experiment: CellTiter-Glo cell viability, Capan-1. The experiment is classed as cell-based, human. As to conditions: K-Ras G12V, 5-day treatment, read-out: Capan-1 Cell Viability IC50. An outline of the steps:
(§1)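 Viability is read as luminescence after five days of compound exposure, with plates first equilibrated to room temperature for roughly 30 minutes. Each signal is expressed as a percentage of the mean DMSO control, and curves are fitted by four-parameter logistic regression.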

Experiment [3] addresses K-Ras G12C(GMP-PNP) binding to BRAF RBD (Homo sapiens (Human), UniProt P01116+P62937, G12C). Description: Disruption of BRAF RBD interaction with K-Ras (FRET / MOA assay), K-Ras G12C. The experiment is classed as biochemical. As to conditions: read-out: KRAS G12C FRET IC50. An outline of the steps:
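Incubation of compound (up to 30 μM final, 3-fold steps) with GMP-PNP-type loaded Ras isoform, cyclophilin A and BRAF RBD ran 3 h at 25° C, followed by 1.5 h with detection antibodies. Disruption appears as a reduced TR-FRET ratio compared with DMSO controls, expressed as IC50.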

For experiment [4], the system named is NCI-H358 cells (K-Ras G12C). Kind of experiment: CellTiter-Glo cell viability, NCI-H358. The experiment is classed as cell-based, human. The note with it: K-Ras G12C, 5-day treatment, read-out: H358 Cell Viability IC50. An outline of the steps:
as §1
(In ATP-based viability assays light output follows the ATP content of the culture.)

Structures are written as SMILES. Read-outs that look alike come from different tables or passages of the source.

Chain of K-Ras G12C(GMP-PNP) binding to BRAF RBD (P01116 other isoform, or with tags, fused parts or gaps G12C): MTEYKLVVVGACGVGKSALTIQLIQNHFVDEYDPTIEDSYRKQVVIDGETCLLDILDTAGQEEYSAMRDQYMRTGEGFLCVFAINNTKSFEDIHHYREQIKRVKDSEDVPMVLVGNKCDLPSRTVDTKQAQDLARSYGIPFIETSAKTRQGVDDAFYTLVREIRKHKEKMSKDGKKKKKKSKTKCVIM
Chain of K-Ras G12C(GMP-PNP) binding to BRAF RBD (P62937 whole entry, canonical isoform): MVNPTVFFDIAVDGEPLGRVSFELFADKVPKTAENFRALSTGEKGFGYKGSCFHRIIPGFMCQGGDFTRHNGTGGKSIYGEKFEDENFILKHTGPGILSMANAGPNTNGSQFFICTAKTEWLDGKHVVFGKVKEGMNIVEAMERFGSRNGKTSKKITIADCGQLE

On to `CCn1c(-c2cccnc2[C@H](C)OC)c2c3cc(ccc31)-c1cc(O)cc(c1)C[C@H](NC(=O)[C@H](C(C)C)N(C)C(=O)C1CCC3(CCOC3)O1)C(=O)N1CCC[C@H](N1)C(=O)OCC(C)(C)C2` (stereo partly drawn) [Compound A409], for which the EC50 (as a rule, the concentration at which the effect is half-maximal) in experiment [1] (Homo sapiens) is < 5000 nM. Moreover, the IC50 – broadly, the concentration needed to halve the response being measured – in experiment [2] (Homo sapiens, CAPAN-1, 120 h) was 100 to 1000 nM; in experiment [3] it was 100 to 1000 nM; in experiment [4] (Homo sapiens, NCI-H358, 120 h), 100 to 1000 nM.

In the case of `CCn1c(-c2cccnc2[C@H](C)OC)c2c3cc(ccc31)-c1cc(O)cc(c1)C[C@H](NC(=O)[C@H](C(C)C)N(C)C(=O)C13CCC(CO1)C3)C(=O)N1CCC[C@H](N1)C(=O)OCC(C)(C)C2` [Compound A411], the EC50 in experiment [1] (Homo sapiens) was < 5000 nM. Further, the figures for the concentration for half-maximal inhibition (IC50) in experiment [2], in experiment [3] and in experiment [4] were 100 to 1000 nM, < 10 nM and 100 to 1000 nM, respectively.

Turning to `CCn1c(-c2cccnc2[C@H](C)OC)c2c3cc(ccc31)-c1cc(O)cc(c1)C[C@H](NC(=O)[C@H](C(C)C)N(C)C(=O)[C@@H]1[C@H]3CC[C@H](C3)[C@@H]1N)C(=O)N1CCC[C@H](N1)C(=O)OCC(C)(C)C2` [Compound A417], in experiment [1] (Homo sapiens), the EC50 was < 5000 nM. The IC50 in experiment [2] (Homo sapiens, CAPAN-1, 120 h) is 1000 to 10000 nM; in experiment [3], 10 to 100 nM; in experiment [4] (Homo sapiens, NCI-H358, 120 h), 100 to 1000 nM.

On to `CCn1c(-c2cccnc2[C@H](C)OC)c2c3cc(ccc31)-c1csc(n1)C[C@H](NC(=O)[C@H](C(C)C)N(C)C(=O)N1CCO[C@@]3(CCN(C)C3)C1)C(=O)N1CCC[C@H](N1)C(=O)OCC(C)(C)C2` [Compound A436], for which, in experiment [1] (Homo sapiens), the EC50 is < 5000 nM. Besides, the IC50 lay in the range of 10 to 100 nM in experiment [2] (Homo sapiens, CAPAN-1, 120 h); 10 to 100 nM in experiment [3]; 10 to 100 nM in experiment [4] (Homo sapiens, NCI-H358, 120 h).

As to `CCn1c(-c2cc(N3CCN(C)CC3)cnc2[C@H](C)OC)c2c3cc(ccc31)-c1csc(n1)C[C@H](NC(=O)[C@H](C(C)C)N(C)C(=O)[C@@H]1CCCS1(=O)=O)C(=O)N1CCC[C@H](N1)C(=O)OCC(C)(C)C2` [Compound A440], the EC50 in experiment [1] (Homo sapiens) was < 5000 nM. Also, the IC50 in experiment [2] (Homo sapiens, CAPAN-1, 120 h) lay within 10 to 100 nM; in experiment [3], 10 to 100 nM; in experiment [4] (Homo sapiens, NCI-H358, 120 h), 10 to 100 nM.

In the case of `CCn1c(-c2cccnc2[C@H](C)OC)c2c3cc(ccc31)-c1csc(n1)C[C@H](NC(=O)[C@H](C(C)C)N(C)C(=O)N1C[C@@H]3OCCN(C)[C@@H]3C1)C(=O)N1CCC[C@H](N1)C(=O)OCC(C)(C)C2` [Compound A444], the EC50 in experiment [1] (Homo sapiens) is < 5000 nM. Further, the IC50 fell in the range of 10 to 100 nM in experiment [2] (Homo sapiens, CAPAN-1, 120 h); 10 to 100 nM in experiment [3]; 10 to 100 nM in experiment [4] (Homo sapiens, NCI-H358, 120 h).

Regarding `CCO[C@@H]1c2nc(cs2)-c2ccc3c(c2)c(c(-c2cc(C4CCN(C5COC5)CC4)cnc2[C@H](C)OC)n3CC)CC(C)(C)COC(=O)[C@@H]2CCCN(N2)C(=O)[C@H]1NC(=O)[C@H]1[C@H](C)[C@@H]1C` [Compound A449, (1r,2R,3S)—N-((6^3S,3S,4S,Z)-3-ethoxy-1^1-ethyl-1^2-(2-((S)-1-methoxyethyl)-5-(1-(oxetan-3-yl)piperidin-4-yl)pyridin-3-yl)-10,10-dimethyl-5,7-dioxo-6^1,6^2,6^3,6^4,6^5,6^6-hexahydro-1^1H-8-oxa-2 (4,2)-thiazola-1 (5,3)-indola-6 (1,3)-pyridazinacycloundecaphane-4-yl)-2,3-dimethylcyclopropane-1-carboxamide], the EC50 in experiment [1] was < 5000 nM. Further, the IC50 in experiment [2], in experiment [3] and in experiment [4] was 100 to 1000 nM throughout.

For `CCn1c(-c2cccnc2[C@H](C)OC)c2c3cc(ccc31)-c1csc(n1)[C@@H](OCC1CCN(C)CC1)[C@H](NC(=O)[C@H]1C[C@@H]1C)C(=O)N1CCC[C@H](N1)C(=O)OCC(C)(C)C2` [Compound A451, (1S,2S)—N-((6^3S,3S,4S,Z)-1^1-ethyl-1^2-(2-((S)-1-methoxyethyl)pyridin-3-yl)-10,10-dimethyl-3-((1-methylpiperidin-4-yl)methoxy)-5,7-dioxo-6^1,6^2,6^3,6^4,6^5,6^6-hexahydro-1^1H-8-oxa-2 (4,2)-thiazola-1 (5,3)-indola-6 (1,3)-pyridazinacycloundecaphane-4-yl)-2-methylcyclopropane-1-carboxamide], the EC50 in experiment [1] was < 5000 nM. The figures for the IC50 in experiment [2], in experiment [3] and in experiment [4] were 10 to 100 nM, 100 to 1000 nM and 10 to 100 nM, respectively.

Take `CCn1c(-c2cccnc2[C@H](C)OC)c2c3cc(ccc31)-c1csc(n1)C[C@H](NC(=O)[C@H](C(C)C)N(C)C(=O)N1C[C@H]3CN(C)CC[C@H]31)C(=O)N1CCC[C@H](N1)C(=O)OCC(C)(C)C2` [Compound A462]: the EC50 in experiment [1] (Homo sapiens) is < 5000 nM. The IC50 was 100 to 1000 nM in experiment [2] (Homo sapiens, CAPAN-1, 120 h); 100 to 1000 nM in experiment [3]; 100 to 1000 nM in experiment [4] (Homo sapiens, NCI-H358, 120 h).

Consider `CCOC1c2nc(cs2)-c2ccc3c(c2)c(c(-c2cc(C4CC5COCC(C4)N5C4CC4)cnc2C(C)OC)n3CC)CC(C)(C)COC(=O)C2CCCN(N2)C(=O)C1NC(=O)C1C(C)C1C` [Compound A483, (1r,2R,3S)—N-((6^3S,3S,4S,Z)-12-(5-((1R,5S,7s)-9-cyclopropyl-3-oxa-9-azabicyclo[3.3.1]nonan-7-yl)-2-((S)-1-methoxyethyl)pyridin-3-yl)-3-ethoxy-1^1-ethyl-10,10-dimethyl-5,7-dioxo-6^1,6^2,6^3,6^4,6^5,6^6-hexahydro-1^1H-8-oxa-2 (4,2)-thiazola-1 (5,3)-indola-6 (1,3)-pyridazinacycloundecaphane-4-yl)-2,3-dimethylcyclopropane-1-carboxamide], for which the EC50 in experiment [1] is < 5000 nM. Besides, the results for the IC50 in experiment [2], in experiment [3] and in experiment [4] were 10 to 100 nM, 100 to 1000 nM and < 10 nM, respectively.

On to `CCn1c(-c2cccnc2[C@H](C)OC)c2c3cc(ccc31)-c1csc(n1)C[C@H](NC(=O)[C@H](C(C)C)N(C)C(=O)N1CCC[C@H](N(C)C)CC1)C(=O)N1CCC[C@H](N1)C(=O)OCC(C)(C)C2` [Compound A493], for which, in experiment [1] (Homo sapiens), the EC50 is < 5000 nM. Moreover, the IC50 was 100 to 1000 nM in experiment [2] (Homo sapiens, CAPAN-1, 120 h); 10 to 100 nM in experiment [3]; 10 to 100 nM in experiment [4] (Homo sapiens, NCI-H358, 120 h).

As for `CCn1c(-c2cccnc2[C@H](C)OC)c2c3cc(ccc31)-c1csc(n1)C[C@H](NC(=O)[C@H](C(C)C)N(C)C(=O)N(C)C1(C)COC1)C(=O)N1CCC[C@H](N1)C(=O)OCC(C)(C)C2` [Compound A527], the EC50 in experiment [1] (Homo sapiens) was < 5000 nM. Also, the IC50 in experiment [2] (Homo sapiens, CAPAN-1, 120 h) was 10 to 100 nM; in experiment [3] it was < 10 nM; in experiment [4] (Homo sapiens, NCI-H358, 120 h), 10 to 100 nM.

In the case of `CCn1c(-c2cccnc2[C@H](C)OC)c2c3cc(ccc31)-c1csc(n1)C[C@H](NC(=O)[C@H](C(C)C)N(C)C(=O)N1CC([C@H](C)COC)C1)C(=O)N1CCC[C@H](N1)C(=O)OCC(C)(C)C2` [Compound A533], the 50% effective concentration (EC50) in experiment [1] (Homo sapiens) was < 5000 nM. For the same compound, the IC50 in experiment [2] (Homo sapiens, CAPAN-1, 120 h) was in the range of 10 to 100 nM; in experiment [3], 10 to 100 nM; in experiment [4] (Homo sapiens, NCI-H358, 120 h), 10 to 100 nM.

`CCn1c(-c2cccnc2[C@H](C)OC)c2c3cc(ccc31)-c1csc(n1)C[C@H](NC(=O)[C@H](C(C)C)N(C)C(=O)N1CCN3C(=O)CN(C)C[C@H]3C1)C(=O)N1CCC[C@H](N1)C(=O)OCC(C)(C)C2` [Compound A537]: the EC50 in experiment [1] (Homo sapiens) was < 5000 nM. Moreover, the 50% inhibitory concentration (IC50) lay within 10 to 100 nM in experiment [2] (Homo sapiens, CAPAN-1, 120 h); 10 to 100 nM in experiment [3]; 10 to 100 nM in experiment [4] (Homo sapiens, NCI-H358, 120 h).

As to `CCn1c(-c2cccnc2[C@H](C)OC)c2c3cc(ccc31)-c1csc(n1)C[C@H](NC(=O)[C@H](C(C)C)N(C)C(=O)N1CC([C@H](C)N(C)C)C1)C(=O)N1CCC[C@H](N1)C(=O)OCC(C)(C)C2` [Compound A538], in experiment [1] (Homo sapiens), the 50% effective concentration (EC50) was < 5000 nM. For the same compound, the IC50 in experiment [2] (Homo sapiens, CAPAN-1, 120 h) fell in the range of 10 to 100 nM; in experiment [3], 10 to 100 nM; in experiment [4] (Homo sapiens, NCI-H358, 120 h), 10 to 100 nM.
